Target: T1, human TGR5 (Homo sapiens, UniProt Q8TDU6)
T1 construct: expressed in transfected cells; host or cells: HEK293
T1 sequence (Q8TDU6 1-330): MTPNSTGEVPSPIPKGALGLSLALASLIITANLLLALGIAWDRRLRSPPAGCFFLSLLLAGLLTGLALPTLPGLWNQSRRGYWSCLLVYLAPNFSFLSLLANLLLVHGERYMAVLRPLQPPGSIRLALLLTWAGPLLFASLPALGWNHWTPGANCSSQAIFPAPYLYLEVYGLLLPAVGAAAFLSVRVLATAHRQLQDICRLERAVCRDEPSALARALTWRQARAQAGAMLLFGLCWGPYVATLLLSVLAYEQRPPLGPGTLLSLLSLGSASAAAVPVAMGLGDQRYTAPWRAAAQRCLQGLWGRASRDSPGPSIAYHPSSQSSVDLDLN
Test: Cell-based TGR5 assay (cAMP generation, HTRF)
Conditions: HEK293 cells stably transfected with human TGR5; cAMP by HTRF; 30 minutes at 37° C.; read-out: pEC50 Human TGR5 (converted)
How it was run: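 Read-out was HTRF detection of cAMP, converted to concentration via a standard curve and fitted (3-parameter logistic) for pEC50 and maximal response. Agonist stimulation used HEK293 cells stably transfected with human TGR5, incubated 30 min at 37° C in IBMX-containing buffer at 0.05 nM to 10 μM compound.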

`CN(CCCCNC(=O)NC[C@H](O)[C@@H](O)[C@H](O)[C@H](O)CO)S(=O)(=O)c1ccc(C(F)(F)F)c(COC2(c3cnccc3-c3ccccc3OC3CC3)CC2)c1` [Compound I-469, 1-{4-[N-methyl3-({1-[4-(2-cyclopropoxyphenyl)pyridin-3-yl]cyclopropoxy}methyl)-4-(trifluoromethyl)benzenesulfonamido]butyl}-3-[(2S,3R,4R,5R)-2,3,4,5,6-pentahydroxyhexyl]urea] and `CN(CCCCNC(=O)[C@@H](O)[C@@H](O)[C@H](O)[C@@H](O)CO)S(=O)(=O)c1ccc(Cl)c(COC2(c3cnccc3-c3ccccc3OC3CC3)CC2)c1` [Compound I-458, (2S,3S,4R,5S)-2,3,4,5,6-pentahydroxy-N-{4-[N-methyl4-chloro-3-({1-[4-(2-cyclopropoxyphenyl)pyridin-3-yl]cyclopropoxy}methyl)benzenesulfonamido]butyl}hexanamide] cannot be ordered by EC50: under 100 nM for the first, under 100 nM for the second.

`O=C(CCCCc1cc(Cl)c(COC2(c3cnccc3-c3ccccc3OC3CC3)CC2)cc1Cl)N[C@@H](C(=O)O)[C@@H](O)[C@H](O)[C@H](O)CO` [Compound I-153] and `CCCN(C[C@H](O)[C@@H](O)[C@H](O)[C@H](O)CO)C(=O)CCCCc1cc(Cl)c(COC2(c3cnccc3-c3ccccc3OC3CC3)CC2)cc1Cl` [Compound I-129, 5-[2,5-dichloro-4-({1-[4-(2-cyclopropoxyphenyl)pyridin-3-yl]cyclopropoxy}methyl)phenyl]-N-[(2S,3R,4R,5R)-2,3,4,5,6-pentahydroxyhexyl]-N-propylpentanamide] cannot be ordered by EC50: under 100 nM for the first, under 100 nM for the second.

`CC(=O)N(CCCCSc1ccc(Cl)c(COC2(c3cnccc3-c3ccccc3OC3CC3)CC2)c1)C[C@H](O)[C@@H](O)[C@H](O)[C@H](O)CO` [Compound I-501, N-(4-{[4-chloro-3-({1-[4-(2-cyclopropoxyphenyl)pyridin-3-yl]cyclopropoxy}methyl)phenyl]sulfanyl}butyl)-N-[(2S,3R,4R,5R)-2,3,4,5,6-pentahydroxyhexyl]acetamide] and `COCCN(C[C@H](O)[C@@H](O)[C@H](O)[C@H](O)CO)C(=O)CCCSc1ccc(Cl)c(COC2(c3cnccc3-c3ccccc3OC3CC3)CC2)c1` [Compound I-664, 4-{[4-chloro-3-({1-[4-(2-cyclopropoxyphenyl)pyridin-3-yl]cyclopropoxy}methyl)phenyl]sulfanyl}-N-(2-methoxyethyl)-N-[(2S,3R,4R,5R)-2,3,4,5,6-pentahydroxyhexyl]butanamide] cannot be ordered by EC50: under 100 nM for the first, under 100 nM for the second.

Compared with `COc1cc(C)c(CNC2(c3cnccc3-c3ccccc3OC3CC3)CC2)cc1C` [Compound I-29, 1-[4-(2-cyclopropoxyphenyl)pyridin-3-yl]-N-[(4-methoxy-2,5-dimethylphenyl)methyl]cyclopropan-1-amine], `FC(F)(F)c1ccc(Cl)c(CNC2(c3cnccc3-c3ccccc3OC3CC3)CC2)c1` [Compound I-32, N-{[2-chloro-5-(trifluoromethyl)phenyl]methyl}-1-[4-(2-cyclopropoxyphenyl)pyridin-3-yl]cyclopropan-1-amine] is lower in EC50: 126 to 1000 nM for the first, under 100 nM for the second.

First: Cc1ccc(CCCCNC(=O)N(C)C[C@H](O)[C@@H](O)[C@H](O)[C@H](O)CO)nc1CNC1(c2cnccc2-c2ccccc2OC2CC2)CC1 [Compound I-706]
Second: Cc1cc(CNC2(c3cnccc3-c3ccccc3OC3CC3)CC2)c(C)cc1CCCCC(=O)NC[C@H](O)[C@@H](O)[C@H](O)[C@H](O)CO [Compound I-148, 5-{4-[({1-[4-(2-cyclopropoxyphenyl)pyridin-3-yl]cyclopropyl}amino)methyl]-2,5-dimethylphenyl}-N-[(2S,3R,4R,5R)-2,3,4,5,6-pentahydroxyhexyl]pentanamide]
The EC50 of the first is higher: 1260 to 10000 nM for the first, 126 to 1000 nM for the second.

Compared with `CS(=O)(=O)NCCCCN(CCCSc1ccc(Cl)c(COC2(c3cnccc3-c3ccccc3OC3CC3)CC2)c1)C(=O)[C@@H](O)[C@@H](O)[C@H](O)[C@@H](O)CO` [Compound I-580, (2S,3S,4R,5S)-N-(3-{[4-chloro-3-({1-[4-(2-cyclopropoxyphenyl)pyridin-3-yl]cyclopropoxy}methyl)phenyl]sulfanyl}propyl)-2,3,4,5,6-pentahydroxy-N-(4-methanesulfonamidobutyl) hexanamide], `CC(CCCCNC(=O)NC[C@H](O)[C@@H](O)[C@H](O)[C@H](O)CO)c1ccc(Cl)c(COC2(c3cnccc3-c3ccccc3OC3CC3)CC2)c1` (stereo partly drawn) [Compound I-275, 1-{5-[4-chloro-3-({1-[4-(2-cyclopropoxyphenyl)pyridin-3-yl]cyclopropoxy}methyl)phenyl]hexyl}-3-[(2S,3R,4R,5R)-2,3,4,5,6-pentahydroxyhexyl]urea] is lower in EC50: 126 to 1000 nM for the first, under 100 nM for the second.

First: O=C(CCCC1CN(S(=O)(=O)c2ccc(Cl)c(COC3(c4cnccc4-c4ccccc4OC4CC4)CC3)c2)C1)NC[C@H](O)[C@@H](O)[C@H](O)[C@H](O)CO [Compound I-453, 4-{1-[4-chloro-3-({1-[4-(2-cyclopropoxyphenyl)pyridin-3-yl]cyclopropoxy}methyl)benzenesulfonyl]azetidin-3-yl}-N-[(2S,3R,4R,5R)-2,3,4,5,6-pentahydroxyhexyl]butanamide]
Second: O=S(=O)(NC[C@H](O)[C@@H](O)[C@H](O)[C@H](O)CO)c1ccc(Cl)c(COC2(c3cnccc3-c3ccccc3OC3CC3)CC2)c1 [Compound I-397, (2S,3R,4R,5R)-S-[4-chloro-3-({1-[4-(2-cyclopropoxyphenyl)pyridin-3-yl]cyclopropoxy}methyl)phenyl]-2,3,4,5,6-pentahydroxyhexane-1-sulfonamido]
The EC50 of the first is lower: under 100 nM for the first, 126 to 1000 nM for the second.

Compared with `Cc1ccc(C(C)CCCC(=O)N(CC(=O)N(C)C)C[C@H](O)[C@@H](O)[C@H](O)[C@H](O)CO)cc1CNC1(c2cnccc2-c2ccccc2OC2CC2)CC1` (stereo partly drawn) [Compound I-364, 5-{3-[({1-[4-(2-cyclopropoxyphenyl)pyridin-3-yl]cyclopropyl}amino)methyl]-4-methylphenyl}-N-[(dimethylcarbamoyl)methyl]-N-[(2S,3R,4R,5R)-2,3,4,5,6-pentahydroxyhexyl]hexanamide], `Cc1ccc(C(C)CCCC(=O)N(Cc2ccccc2)C[C@H](O)[C@@H](O)[C@H](O)[C@H](O)CO)cc1CNC1(c2cnccc2-c2ccccc2OC2CC2)CC1` (stereo partly drawn) [Compound I-259, N-benzyl-5-(3-(((1-(4-(2-cyclopropoxyphenyl)pyridin-3-yl)cyclopropyl)amino)methyl)-4-methylphenyl)-N-((2S,3R,4R,5R)-2,3,4,5,6-pentahydroxyhexyl) hexanamide] is lower in EC50: 126 to 1000 nM for the first, under 100 nM for the second.

`O=C(NCCCC1(c2ccc(Cl)c(CNC3(c4cnccc4-c4ccccc4OC4CC4)CC3)c2)CC1)NC[C@H](O)[C@@H](O)[C@H](O)[C@H](O)CO` [Compound I-385, 1-[3-(1-{4-chloro-3-[({1-[4-(2-cyclopropoxyphenyl)pyridin-3-yl]cyclopropyl}amino)methyl]phenyl}cyclopropyl)propyl]-3-[(2S,3R,4R,5R)-2,3,4,5,6-pentahydroxyhexyl]urea] and `O=C(NCCCCSc1ccc(Cl)c(CNC2(c3cnccc3-c3ccccc3OC3CC3)CC2)c1)NC[C@H](O)[C@@H](O)[C@H](O)[C@H](O)CO` [Compound I-623, 1-[4-({4-chloro-3-[({1-[4-(2-cyclopropoxyphenyl)pyridin-3-yl]cyclopropyl}amino)methyl]phenyl}sulfanyl)butyl]-3-[(2S,3R,4R,5R)-2,3,4,5,6-pentahydroxyhexyl]urea] cannot be ordered by EC50: under 100 nM for the first, under 100 nM for the second.

First: O=C(CCN(CCC(=O)NC[C@H](O)[C@@H](O)[C@H](O)[C@H](O)CO)C(=O)CCCCc1cc(Cl)c(CNC2(c3cnccc3-c3ccccc3OC3CC3)CC2)cc1Cl)NC[C@H](O)[C@@H](O)[C@H](O)[C@H](O)CO (stereo in doubt) [Compound I-170, 5-{2,5-dichloro-4-[({1-[4-(2-cyclopropoxyphenyl)pyridin-3-yl]cyclopropyl}amino)methyl]phenyl}-N,N-bis(2-{[(2S,3R,4R,5R)-2,3,4,5,6-pentahydroxyhexyl]carbamoyl}ethyl) pentanamide]
Second: CC(CCCC(=O)N(CCCO)C[C@H](O)[C@@H](O)[C@H](O)[C@H](O)CO)c1ccc(Cl)c(CNC2(c3cnccc3-c3ccccc3OC3CC3)CC2)c1 (stereo partly drawn) [Compound I-334, 5-{4-chloro-3-[({1-[4-(2-cyclopropoxyphenyl)pyridin-3-yl]cyclopropyl}amino)methyl]phenyl}-N-(3-hydroxypropyl)-N-[(2S,3R,4R,5R)-2,3,4,5,6-pentahydroxyhexyl]hexanamide]
The EC50 of the first is higher: 1260 to 10000 nM for the first, under 100 nM for the second.

`O=C(CCCCc1cc(Cl)c(COC2(c3cnccc3-c3ccccc3OC3CC3)CC2)cc1Cl)N(Cc1ccccc1)C[C@H](O)[C@@H](O)[C@H](O)[C@H](O)CO` [Compound I-126, N-benzyl-5-(2,5-dichloro-4((1-(4-(2-cyclopropoxyphenyl)pyridin-3-yl)cyclopropoxy)methyl)phenyl)-N-((2S,3R,4R,5R)-2,3,4,5,6-pentahydroxyhexyl)pentanamide] and `O=C(NC[C@H](O)[C@@H](O)[C@H](O)[C@H](O)CO)c1ccc(CCc2ccc(Cl)c(COC3(c4cnccc4-c4ccccc4OC4CC4)CC3)c2)cc1` [Compound I-724, 4-(4-Chloro-3-((1-(4-(2-cyclopropoxyphenyl)pyridin-3-yl)cyclopropoxy)methyl)phenethyl)-N-((2S,3R,4R,5R)-2,3,4,5,6-pentahydroxyhexyl)benzamide] fall in the same range of EC50: 126 to 1000 nM for the first, 126 to 1000 nM for the second.

For `Clc1ccc(Cl)c(COC2(c3cnccc3-c3ccccc3Cl)CC2)c1` [Compound I-768, 4-(2-chlorophenyl)-3-(1-((2,5-dichlorobenzyl)oxy)cyclopropyl)pyridine], the EC50 was 126 to 1000 nM.

— patent US12084472B2 (Ardelyx, Inc., priority 2015, dated 2024)
